Results as given in PubChem BioAssay (NCI).
Where “and” joins values, the source holds several entries; their conditions need not be identical. Equal values may be shown once.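 Where inhibition never reached the appropriate level, the endpoint shown equals the highest concentration tested. Otherwise, values were interpolated linearly from a five-concentration, 48-hour dose response in 96-well plates. At the GI50, growth is halved. TGI: total growth inhibition.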

Experiments:
Assay in all cases: NCI anticancer screen, dose series, 48 h
[1] = test system: HOP-62 NSCLC
[2] = test system: K-562 leukemia
[3] = test system: MCF7 breast
[4] = test system: HT29 colon
[5] = test system: OVCAR-5 ovarian
[6] = test system: CCRF-CEM leukemia
[7] = test system: SR leukemia
[8] = test system: COLO 205 colon
[9] = test system: T-47D breast
[10] = test system: A498 renal

Row | Structure (SMILES) | GI50 [1] [µM] | TGI [1] | GI50 [2] [µM] | TGI [2] [µM] | GI50 [3] [µM] | TGI [3] | GI50 [4] [µM] | TGI [4] | GI50 [5] [µM] | TGI [5] | GI50 [6] [µM] | TGI [6] [µM] | GI50 [7] [µM] | TGI [7] [µM] | GI50 [8] [µM] | TGI [8] | GI50 [9] [µM] | TGI [9] | GI50 [10] [µM] | TGI [10]
1 | COc1ccc(-c2nn(-c3ccc(NC(=O)Nc4ccc(Cl)c(C(F)(F)F)c4)cc3)cc2-c2ccncc2)cc1Cl | 1.81 | 4.45 µM | 1.25 | 8.55 | 1.7 | 4.54 µM | 1.65 | 4.57 µM | 1.88 | 5.96 µM | 1.4 | 6.65 | 1.86 | 5.96 | 1.62 | 3.13 µM | 2.72 | 7.73 µM | 1.62 | 5.18 µM
2 | CCOc1ccc2c(c1)c(=O)c1c(NCCN(CC)CC)ccc3nnn2c31 | – | > 48.8 µM | – | > 66.2 | – | > 68.7 µM | – | 32 µM | – | > 54.8 µM | – | 25.7 | – | 50.1 | – | > 54 µM | – | > 100 µM | – | > 100 µM
3 | Cc1cn(S(=O)(=O)c2ccccc2)c2c(OCc3ccccc3)cc(NS(C)(=O)=O)cc12 | – | > 100 µM | – | > 100 | – | 27.3 µM | – | 17.2 µM | – | > 100 µM | – | > 100 | – | > 100 | – | 77.2 µM | – | 39.4 µM | – | 50.3 µM
4 | C=C(C(=O)O[C@H]1C(=O)C2=C(C)CCC3C(=C)C(=O)O[C@@H]3C2[C@]1(C)O)C1CC[C@]2(C)CCCC(=C)[C@H]2C1 (stereo not given in full) | 3.09 | 10.2 µM and 20.5 µM | – | > 20.1 | 1.75 | 8.81 µM and 10.8 µM | 1.59 | 13.5 µM and 10.8 µM | 9.64 | 25 µM and 41 µM | – | 0.106 | – | > 100 | 13.7 | 23 µM and 34.8 µM | 2.06 | 13.1 µM and 5.03 µM | 0.0282 | 6.88 µM and 26.1 µM
5 | CCOC(=O)/C=C(\C(=O)OCC)n1ccc(=O)[nH]c1=O | – | 53.6 µM | – | 19.1 | – | 23.9 µM | – | 31 µM | – | 34.8 µM | – | 6.2 | – | 29.7 | – | 8.24 µM | – | 33.1 µM | – | 34.8 µM
6 | Oc1ccc(Cl)cc1C1=NC(/N=C\c2ccccc2)=NC(c2ccccc2)C1 (stereo not given) | – | > 100 µM | – | > 100 | – | > 100 µM | – | > 100 µM | – | > 100 µM | – | > 100 | – | 45 | – | > 100 µM | – | > 100 µM | – | > 100 µM
7 | COc1ccc(N2NC(c3ccccc3)(c3ccccc3)C(C)C2=O)cc1 (stereo not given) | – | > 100 µM | – | > 100 | – | > 100 µM | – | > 100 µM | – | > 100 µM | – | > 100 | – | > 100 | – | 34 µM | – | > 100 µM | – | > 100 µM
8 | CCCCCCCCCCCCCC(=O)N(CCCCCCCCC)CC(O)C(O)C(OC1OC(CO)C(O)C(O)C1O)C(O)CO (stereo not given) | – | 47.4 µM | – | 39.4 | – | > 100 µM | – | 33.3 µM | – | > 100 µM | – | 45.4 | – | 46.2 | – | 37.3 µM | – | 39.7 µM | – | 35.9 µM
9 | Oc1cc(Br)cc2cc(Cl)cnc12 | – | > 60.4 µM | – | 12.3 | – | 23.8 µM | – | > 40.9 µM | – | > 100 µM | – | 7.23 | – | > 30.2 | – | > 54.9 µM | – | 16.7 µM | – | 22.9 µM
10 | Brc1ccc2c(-c3csc(-c4c[nH]c5ccccc45)n3)c[nH]c2c1 | – | 30.8 µM | 18.8 | 37.5 | 16.7 | 37.1 µM | – | 29 µM | – | 32.7 µM | – | 38.1 | 6.36 | 21.7 | – | 25.4 µM | – | 66.4 µM | – | 32.2 µM
11 | Cn1c(O)c(C=Nc2ccccc2Cl)c(=O)n(C)c1=O | – | 52.4 µM | – | > 100 | – | > 100 µM | – | > 100 µM | – | 63.2 µM | – | 49 | – | 55.9 | – | > 100 µM | – | 65.5 µM | – | > 100 µM
